Counter-ions that a name gives are not always drawn. Marks after values point to notes of the source that are not given here. Blank lines part the entries; values can stand above or below the compound they belong to.
How the values were obtained:
[1] = system: rat hearts (reperfusion injury); assay: Reperfusion injury of the heart: coronary artery occlusion/reperfusion arrhythmias; type: in vivo; details: for Ventricular fibrilation Insidence (%) / Ventricular fibrilation Insidence (number of animals) / Ventricular tachycardia Insidence (%) / Ventricular tachycardia Insidence (number of animals) / Ventricular fibrilation Duration / Ventricular tachycardia Duration / Ventricular fibrilation Duration (s) / Ventricular tachycardia Duration (s): 20 min reperfusion; for Ventricular fibrilation Duration / Ventricular tachycardia Duration / Ventricular fibrilation Duration (s) / Ventricular tachycardia Duration (s): mean ±SEM; for effect on incidence and duration of ventricular tachycardias and fibrillations and on mortality, in words: versus control, p<0.05
Excerpt: Capacity of a hydroxyguanidine (PR5) to afford a tissue protective effect in the heart. […] In this model the coronary arteries of rat hearts were occluded, and after some time reperfusion was allowed to occur. During reperfusion events of cardiac arrhythmias are observed. They are well known to be related to the accumulation of oxygen derived free radicals. These arrhythmias are monitored in the animals treated with PR5 and in control animals either receiving no drug or allopurinol. Allopurinol was used as a control because it is well known from the litterature as an agent capable of preventing the generation of oxygen derived free radicals. In brief, rats were anaesthetised with sodium pentobarbital and ventilated with air using a respirator for small animals at a pressure 15-20 cm H2O and a […] rate of 60 strokes/min. ECG (electrocardiogram) and systemic blood pressure was registered on a Physiograph DMP-4B (Narco Bio-Systems, Houston, USA) using, respectively, a standard lead II and a pressure transducer PR-1500 (Narco Bio-Systems, Houston, USA) contected via a catheter to the left carotid artery. The chest was opened via the fourth intercostal space, the pericardium incised and a sling (4/0 silk Medicor, Budapest, Hungary) was placed around the left coronary artery close to its origin. The silk ligature was passed through a piece of plastic tubing, the chest was partially closed and the animal was allowed to recover for 10 min. PR-5, dissolved in 0.9% NaCl, was then injected i.v. 10 min before the occlusion of the coronary artery at doses 1, 3 or 10 mg/kg body weight. As control served the same volume of 0.9% NaCl. The coronary artery was occluded for a period of 10 min by applying tension to the ligature and pressing the tube onto the heart surface. Reperfusion was initiated by removing the clamp and releasing the tension on the ligature and allowing the perfusion to continue for 20 min. Ventricular ectopic activity was assessed during the 20 min reperfusion period by measuring the duration of ventricular tachycardias and ventricular fibrillations from the ECG curves. The results are shown in Table 2, where the results are presented as mean ±SEM (in seconds) for the total duration of ventricular tachycardias and ventricular fibrillations during the 20 min reperfusion period, (or until eventual death of the animal). The incidence of animals showing ventricular tachycardia and ventricular fibrillation are also given Table 2 as the number of animals showing ventricular tachycardia and ventricular fibrillation. Figures in parenthese relate to incidents expressed in % of the total number of animals.
In Table 2 a star “*” denotes a significant difference from the control at p<0.05 using the appropriate statistical test. Alp=allopurinol. n=number of animals tested.

[2] = target: T1, bovine milk xanthine oxidase (Bos taurus, UniProt P80457); details: 20 μM allopurinol, 100 μM xanthine, 0.004 units/ml xanthine oxidase
Target sequence in this assay (P80457 2-1332): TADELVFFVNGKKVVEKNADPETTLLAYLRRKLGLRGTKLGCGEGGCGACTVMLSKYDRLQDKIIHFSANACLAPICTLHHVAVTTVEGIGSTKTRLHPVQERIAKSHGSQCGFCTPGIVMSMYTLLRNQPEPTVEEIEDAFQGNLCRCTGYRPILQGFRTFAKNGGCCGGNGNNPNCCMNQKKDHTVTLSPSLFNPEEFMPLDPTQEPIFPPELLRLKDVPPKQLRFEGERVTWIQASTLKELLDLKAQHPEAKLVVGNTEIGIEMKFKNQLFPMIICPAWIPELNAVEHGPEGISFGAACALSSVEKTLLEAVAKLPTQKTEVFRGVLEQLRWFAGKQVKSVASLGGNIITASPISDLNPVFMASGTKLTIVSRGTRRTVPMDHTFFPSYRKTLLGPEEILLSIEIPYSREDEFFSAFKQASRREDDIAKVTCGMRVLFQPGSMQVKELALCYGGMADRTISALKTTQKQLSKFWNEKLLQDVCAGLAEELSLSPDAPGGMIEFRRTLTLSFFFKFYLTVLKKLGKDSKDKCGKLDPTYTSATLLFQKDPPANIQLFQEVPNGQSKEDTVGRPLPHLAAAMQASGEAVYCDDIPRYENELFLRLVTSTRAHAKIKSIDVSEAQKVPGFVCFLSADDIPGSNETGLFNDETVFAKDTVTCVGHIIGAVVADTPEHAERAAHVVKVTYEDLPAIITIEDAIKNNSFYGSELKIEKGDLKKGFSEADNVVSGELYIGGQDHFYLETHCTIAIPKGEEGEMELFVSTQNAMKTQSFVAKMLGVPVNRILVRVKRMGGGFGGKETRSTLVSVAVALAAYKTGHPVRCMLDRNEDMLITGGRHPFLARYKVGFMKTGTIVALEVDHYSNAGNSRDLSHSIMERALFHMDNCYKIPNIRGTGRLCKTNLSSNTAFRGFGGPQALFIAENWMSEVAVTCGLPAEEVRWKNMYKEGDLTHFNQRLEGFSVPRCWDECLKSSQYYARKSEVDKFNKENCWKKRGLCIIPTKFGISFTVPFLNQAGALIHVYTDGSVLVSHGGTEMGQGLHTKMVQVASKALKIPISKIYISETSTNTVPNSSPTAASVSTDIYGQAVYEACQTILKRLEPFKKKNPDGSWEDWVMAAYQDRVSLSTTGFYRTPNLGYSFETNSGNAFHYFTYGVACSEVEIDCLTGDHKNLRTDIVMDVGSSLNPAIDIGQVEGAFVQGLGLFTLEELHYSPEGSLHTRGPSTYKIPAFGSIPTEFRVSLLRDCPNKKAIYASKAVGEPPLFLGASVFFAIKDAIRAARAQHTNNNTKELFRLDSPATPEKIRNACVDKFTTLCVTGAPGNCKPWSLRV
Experimental: Capacity of allopurinol to inhibit the reduction of hydroxyguanidines by xanthine oxidase. […] In these tests varying amounts of guanoxabenz was added to assays yielding 150 μl final volumes and containing final concentrations 0.004 units/ml of bovine milk xanthine oxidase (Sigma, St. Louis, MO., USA), 100 μM xanthine, 20 μM allopurinol, 50 pM α2-adrenoceptors (in HT29 cell membranes), 33 mM Tris HCl, 1 mM EDTA, pH 7.5, and incubating for 1 hour at 25° C.

rat spleen tissue = assay: Formation of uric acid in spleen tissue under anaerobic conditions, HPLC
Experimental: Capacity of a hydroxyguanidine (PR5) to sustain the formation of uric acid in tissues. […] Pieces of 0.6 g of rat spleen tissue were incubated in 7.5 ml argon-saturated Tris-Ringer buffer (4 mM KCl, 100 mM NaCl, 2 mM CaCl2, 2 mg/ml glucose and 40 mM TrisHCl, pH 7.4) in 50 ml Erlenmeyer flasks at 37° C., care being taken to maintain an atmosphere of argon above the incubations. As aerobic control served identical incubations, except that the buffers were saturated with air and the incubations performed under air. After 30 min the flasks were opened and the tissues minced to obtain tissue cubes with about 1 mm sides. […] The supernatants were then centrifuged using Ultrafree-MC Biomax-10 Millipore filtration devices at 5000×g for 0.5 hr in order to obtain an essentially particle free preparation which was being kept at −20° C. until analysed for the uric acid content using HPLC.
For analysing the uric acid content the above preparations were thawed and 0.05 ml aliquots were injected onto Waters 2690 Separation Module using a 2.1×250 mm Vydac RP C18, 90A, 201HS1010 column using a linear gradient of 10 mM KH2PO4 (A) and 10 mM KH2PO4 in 50% (v/v) methanol/water (B) (both at pH 4.55 adjusted with phosphoric acid). […] The uric acid peak was eluted after 13 min and was identified and detected according to the spectrum of a standard uric acid reference.

[3] = target: T1, bovine milk xanthine oxidase; assay: Capacity to sustain oxidation of xanthine by xanthine oxidase in the absence of oxygen, spectrophotometric; type: biochemical; design: host or cells: bovine milk; details: for V = 1000 × (Δabs 295 nm) min^−1 (initial rate of the support of the oxidation of xanthine): 50 μM hydroxyguanidine, 50 μM xanthine, 0.05 units/ml xanthine oxidase, anaerobic, pH 7.5, 20° C., blank subtracted
Experimental: Capacities of a series of hydroxyguanidine to sustain the oxidation of xanthine by xanthine oxidase in the absence of oxygen. The capacities of various hydroxyguanidines to sustain the oxidation of xanthine was assayed by using a spectrophotometric method. In this method bovine milk xanthine oxidase was injected to a Helma® sealable cuvette for anaerobic application thereby creating 1 ml of a reaction mixture that contained reagents as follows: 50 μM of a hydroxyguanidine, 50 μM xanthine, 0.05 units/ml bovine milk xanthine oxidase, 50 mM Tris and 1.5 mM EDTA; the pH of the reaction mixture being 7.5, and the temperature 20° C. Anaerobic conditions were assured by pre-gassing all solutions used for 5-10 min, with nitrogen. The rate of formation of uric acid was monitored spectrophotometrically by measuring the increase in absorbance at 295 nm (the absorption maximum for uric acid) at intervals. The relative capacities of the hydroxyguanidines to sustain oxidation of xanthine were estimated from the derivative of the initial linear phase of the curves. To obtain blank readings an equal volume of the solvent of the hydroxyguanidine (water) was added to the reaction mixture in separate experiments and the initial rate of absorbance change was substracted from the rate readings of the tested hydroxyguanidine.
Exemplary initial rates for the rate of the support of the oxidation of xanthine obtained by assaying the exemplary hydroxyguanidines listed above by the method in the present example are furthermore given in Table 2: […]
Target sequence in this assay (P80457 whole entry): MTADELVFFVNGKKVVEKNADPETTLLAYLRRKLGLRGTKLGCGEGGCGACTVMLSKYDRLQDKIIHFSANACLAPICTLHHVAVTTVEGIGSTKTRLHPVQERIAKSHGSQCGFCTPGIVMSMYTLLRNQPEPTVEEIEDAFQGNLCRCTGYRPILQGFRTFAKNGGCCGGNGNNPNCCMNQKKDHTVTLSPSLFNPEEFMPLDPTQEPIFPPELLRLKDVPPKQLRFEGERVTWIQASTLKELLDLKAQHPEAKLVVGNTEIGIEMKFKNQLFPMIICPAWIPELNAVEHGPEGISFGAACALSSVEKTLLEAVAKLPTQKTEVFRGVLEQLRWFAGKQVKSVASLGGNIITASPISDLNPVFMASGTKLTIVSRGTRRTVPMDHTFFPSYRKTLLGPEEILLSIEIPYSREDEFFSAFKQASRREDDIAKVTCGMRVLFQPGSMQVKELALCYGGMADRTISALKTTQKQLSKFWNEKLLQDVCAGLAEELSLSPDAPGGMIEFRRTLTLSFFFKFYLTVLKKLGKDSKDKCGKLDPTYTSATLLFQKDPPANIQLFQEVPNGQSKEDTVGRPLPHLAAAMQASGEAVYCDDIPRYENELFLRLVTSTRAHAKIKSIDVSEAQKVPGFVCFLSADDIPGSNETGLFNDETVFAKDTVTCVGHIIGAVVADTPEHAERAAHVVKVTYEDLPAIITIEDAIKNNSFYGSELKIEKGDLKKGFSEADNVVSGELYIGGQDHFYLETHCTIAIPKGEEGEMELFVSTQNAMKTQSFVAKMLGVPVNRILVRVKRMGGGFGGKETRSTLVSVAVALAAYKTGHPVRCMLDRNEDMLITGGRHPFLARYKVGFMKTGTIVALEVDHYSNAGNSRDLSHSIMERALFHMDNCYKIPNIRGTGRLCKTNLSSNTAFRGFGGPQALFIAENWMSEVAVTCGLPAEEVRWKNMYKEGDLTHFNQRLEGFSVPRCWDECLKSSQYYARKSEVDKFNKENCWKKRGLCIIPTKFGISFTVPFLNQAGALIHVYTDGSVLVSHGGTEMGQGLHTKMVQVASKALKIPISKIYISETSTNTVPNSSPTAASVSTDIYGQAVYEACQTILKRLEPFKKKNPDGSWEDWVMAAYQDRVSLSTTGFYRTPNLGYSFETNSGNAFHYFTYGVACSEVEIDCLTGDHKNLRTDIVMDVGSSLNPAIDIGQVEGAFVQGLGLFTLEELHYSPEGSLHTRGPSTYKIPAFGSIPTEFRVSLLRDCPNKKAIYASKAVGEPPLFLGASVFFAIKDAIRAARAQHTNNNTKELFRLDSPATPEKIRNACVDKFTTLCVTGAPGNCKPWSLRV

[4] = 1 mg/kg i.v. 10 min before occlusion
[5] = 3 mg/kg i.v. 10 min before occlusion

Compound: Oc1ncnc2[nH]ncc12 [Allopurinol, 1H-pyrazolo[3,4-d]pyrimidin-4ol, reference compound]
Mortality Insidence (%) ([1]; 10 mg/kg): 7% | Mortality Insidence (number of animals) ([1]; 10 mg/kg): 1 | Ventricular fibrilation Insidence (%) ([1]; 10 mg/kg): 50% | Ventricular fibrilation Insidence (number of animals) ([1]; 10 mg/kg): 7 | Ventricular tachycardia Insidence (%) ([1]; 10 mg/kg): 64% | Ventricular tachycardia Insidence (number of animals) ([1]; 10 mg/kg): 9 | Ventricular fibrilation Duration ([1]; 10 mg/kg): 30 ± 10 s | Ventricular tachycardia Duration ([1]; 10 mg/kg): 59 ± 12 s | effect on incidence and duration of ventricular tachycardias and fibrillations and on mortality, in words [1]: reduces these indices, although to a lesser extent than 3-10 mg/kg of PR5 | decrease in the apparent affinity of guanoxabenz on addition of allopurinol [2]: about 24 fold

Compound: COc1ccc(C=NNC(=N)NO)c(Cl)c1OC [PR5, N-(3,4-Dimethoxy-2-chlorobenzylideneamino)-N′-hydroxyguanidine tosylate]
Mortality Insidence (%) ([1]; 1 mg/kg i.v.): 14% | Mortality Insidence (number of animals) ([1]; 1 mg/kg i.v.): 2 | Ventricular tachycardia Insidence (%) [1, 4]: 79% | Ventricular tachycardia Insidence (number of animals) [1, 4]: 11 | Ventricular fibrilation Insidence (%) ([1]; 1 mg/kg i.v.): 57% | Ventricular fibrilation Insidence (number of animals) ([1]; 1 mg/kg i.v.): 8 | Ventricular fibrilation Duration ([1]; 1 mg/kg i.v.): 34 ± 9 s | Ventricular tachycardia Duration ([1]; 1 mg/kg i.v.): 61 ± 11 s | Mortality Insidence (%) ([1]; 3 mg/kg i.v.): 0 (0)* % | Mortality Insidence (number of animals) ([1]; 3 mg/kg i.v.): 0 (0)* | Ventricular tachycardia Insidence (%) [1, 5]: 64% | Ventricular tachycardia Insidence (number of animals) [1, 5]: 9 | Ventricular fibrilation Insidence (%) ([1]; 3 mg/kg i.v.): 43% | Ventricular fibrilation Insidence (number of animals) ([1]; 3 mg/kg i.v.): 6 | Ventricular fibrilation Duration (s) ([1]; 3 mg/kg i.v.): 20 ± 7* s | Ventricular tachycardia Duration (s) ([1]; 3 mg/kg i.v.): 38 ± 7* s | Mortality Insidence (%) ([1]; 10 mg/kg): 7% | Mortality Insidence (number of animals) ([1]; 10 mg/kg): 1 | Ventricular fibrilation Insidence (%) ([1]; 10 mg/kg): 36% | Ventricular fibrilation Insidence (number of animals) ([1]; 10 mg/kg): 5 | Ventricular tachycardia Insidence (%) ([1]; 10 mg/kg): 57% | Ventricular tachycardia Insidence (number of animals) ([1]; 10 mg/kg): 8 | Ventricular fibrilation Duration (s) ([1]; 10 mg/kg): 17 ± 5* s | Ventricular tachycardia Duration (s) ([1]; 10 mg/kg): 34 ± 7* s | effect on incidence and duration of ventricular tachycardias and fibrillations and on mortality, in words [1]: significant decrease | uric acid in original incubation medium (rat spleen tissue; 0.5 mM PR5, anaerobic (argon), 60 min, 37° C.): 285.5 µmol/L | formation of uric acid under the anaerobic conditions, in words (rat spleen tissue; 0.5 mM PR5, compared with aerobic control): restored completely to that of the aerobic control | V = 1000 × (Δabs 295 nm) min^−1 (initial rate of the support of the oxidation of xanthine) [3]: 96 1000 × (Δabs 295 nm) min^−1 | activity / capacity to undergo reduction (reaction A), in words ([3]; as disclosed in Example 7): high activity

V = 1000 × (Δabs 295 nm) min^−1 (initial rate of the support of the oxidation of xanthine) [3]: 14 1000 × (Δabs 295 nm) min^−1
Compound: N-(3- Chloro-5-trifuluoromethylpyridyl-2-methyleneamino)-N′-hydroxyguanidine tosylate [PR14]
